Measured values: patent US12077503B2, “Substituted cyclic amides and their use as herbicides” (FMC CORPORATION, priority 2015, dated 2024)

Legend:
Assay in all cases: Test C preemergence
Assay type in all cases: in vivo
[1] = tested on: oilseed rape (Brassica napus); conditions: for Plant response rating, Oilseed Rape: scale 0 to 100, 0 no effect, 100 complete control
Outline: (§1)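 After treatment with surfactant-containing formulations, either preemergence to seeds in loam-sand soil or postemergence to potted seedlings at 2–18 cm, plants were kept 13–15 d in a greenhouse. Observers then compared them with controls and assigned ratings, 0 signifying no effect and 100 complete control.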

[2] = tested on: ragweed (common ragweed, Ambrosia elatior); conditions: for Plant response rating, Ragweed: scale 0 to 100, 0 no effect, 100 complete control
Outline: as §1

[3] = tested on: ryegrass, Italian (Italian ryegrass, Lolium multiflorum); conditions: for Plant response rating, Ryegrass, Italian: scale 0 to 100, 0 no effect, 100 complete control
Outline: as §1

[4] = tested on: johnsongrass (Sorghum halepense); conditions: for Plant response rating, Johnsongrass: scale 0 to 100, 0 no effect, 100 complete control
Outline: as §1

[5] = tested on: velvetleaf (Abutilon theophrasti); conditions: for Plant response rating, Velvetleaf: scale 0 to 100, 0 no effect, 100 complete control
Outline: as §1

[6] = tested on: foxtail, giant (giant foxtail, Setaria faberii); conditions: for Plant response rating, Foxtail, Giant: scale 0 to 100, 0 no effect, 100 complete control
Outline: as §1

[7] = tested on: crabgrass, large (large crabgrass, Digitaria sanguinalis); conditions: for Plant response rating, Crabgrass, Large: scale 0 to 100, 0 no effect, 100 complete control
Outline: as §1

soybean (Glycine max) = conditions: for Plant response rating, Soybean: scale 0 to 100, 0 no effect, 100 complete control
Outline: as §1

[8] = tested on: Galium (catchweed bedstraw, Galium aparine); conditions: for Plant response rating, Galium: scale 0 to 100, 0 no effect, 100 complete control
Outline: as §1

[9] = tested on: morningglory (Ipomoea coccinea); conditions: for Plant response rating, Morningglory: scale 0 to 100, 0 no effect, 100 complete control
Outline: as §1

[10] = tested on: waterhemp (common waterhemp, Amaranthus rudis); conditions: for Plant response rating, Waterhemp: scale 0 to 100, 0 no effect, 100 complete control
Outline: as §1

[11] = tested on: wheat (winter wheat, Triticum aestivum); conditions: for Plant response rating, Wheat: scale 0 to 100, 0 no effect, 100 complete control
Outline: as §1

[12] = tested on: pigweed (Amaranthus retroflexus); conditions: for Plant response rating, Pigweed: scale 0 to 100, 0 no effect, 100 complete control
Outline: as §1

[13] = tested on: blackgrass (Alopecurus myosuroides); conditions: for Plant response rating, Blackgrass: scale 0 to 100, 0 no effect, 100 complete control
Outline: as §1

corn (Zea mays) = conditions: for Plant response rating, Corn: scale 0 to 100, 0 no effect, 100 complete control
Outline: as §1

[14] = tested on: nutsedge, yellow (yellow nutsedge, Cyperus esculentus); conditions: for Plant response rating, Nutsedge, Yellow: scale 0 to 100, 0 no effect, 100 complete control
Outline: as §1

[15] = tested on: barnyardgrass (Echinochloa crus-galli); conditions: for Plant response rating, Barnyardgrass: scale 0 to 100, 0 no effect, 100 complete control
Outline: as §1

[16] = 31 g ai/ha, 0 is no effect, 100 is complete control

For O=C1NCC(c2ccc3c(c2)OC(F)(F)O3)C1C(=O)Nc1cccc(F)c1F (centres unmarked) [Compound 635], the “Plant response rating (scale of 0 to 100), Oilseed Rape” value [1, 16] was 25, the “Plant response rating, Oilseed Rape” value ([1]; 62 g ai/ha) was 50 and the “Plant response rating, Oilseed Rape” value ([1]; 125 g ai/ha) was 90. For the same compound, the “Plant response rating, Oilseed Rape” value ([1]; 250 g ai/ha) was 90, the “Plant response rating (scale of 0 to 100), Ragweed” value [2, 16] was 40 and the “Plant response rating, Ragweed” value ([2]; 62 g ai/ha) was 70. For the same compound, the “Plant response rating, Ragweed” value ([2]; 125 g ai/ha) was 80, the “Plant response rating, Ragweed” value ([2]; 250 g ai/ha) was 80 and the “Plant response rating (scale of 0 to 100), Ryegrass, Italian” value [3, 16] was 0. For the same compound, the “Plant response rating, Ryegrass, Italian” value ([3]; 62 g ai/ha) was 5, the “Plant response rating, Ryegrass, Italian” value ([3]; 125 g ai/ha) was 20 and the “Plant response rating, Ryegrass, Italian” value ([3]; 250 g ai/ha) was 40. For the same compound, the “Plant response rating (scale of 0 to 100), Johnsongrass” value [4, 16] was 25, the “Plant response rating, Johnsongrass” value ([4]; 62 g ai/ha) was 75 and the “Plant response rating, Johnsongrass” value ([4]; 125 g ai/ha) was 65. For the same compound, the “Plant response rating, Johnsongrass” value ([4]; 250 g ai/ha) was 85, the “Plant response rating (scale of 0 to 100), Velvetleaf” value [5, 16] was 0 and the “Plant response rating, Velvetleaf” value ([5]; 62 g ai/ha) was 10. For the same compound, the “Plant response rating, Velvetleaf” value ([5]; 125 g ai/ha) was 15, the “Plant response rating, Velvetleaf” value ([5]; 250 g ai/ha) was 40 and the “Plant response rating (scale of 0 to 100), Foxtail, Giant” value [6, 16] was 85. The “Plant response rating, Foxtail, Giant” value ([6]; 62 g ai/ha) was 90, the “Plant response rating, Foxtail, Giant” value ([6]; 125 g ai/ha) was 95 and the “Plant response rating, Foxtail, Giant” value ([6]; 250 g ai/ha) was 95. For the same compound, the “Plant response rating (scale of 0 to 100), Crabgrass, Large” value [7, 16] was 90, the “Plant response rating, Crabgrass, Large” value ([7]; 62 g ai/ha) was 95 and the “Plant response rating, Crabgrass, Large” value ([7]; 125 g ai/ha) was 95. The “Plant response rating, Crabgrass, Large” value ([7]; 250 g ai/ha) was 98, the “Plant response rating (scale of 0 to 100), Soybean” value (soybean (Glycine max); [16]) was 20 and the “Plant response rating, Soybean” value (soybean (Glycine max); 62 g ai/ha) was 85. The “Plant response rating, Soybean” value (soybean (Glycine max); 125 g ai/ha) was 5, the “Plant response rating, Soybean” value (soybean (Glycine max); 250 g ai/ha) was 60 and the “Plant response rating (scale of 0 to 100), Galium” value [8, 16] was 5. For the same compound, the “Plant response rating, Galium” value ([8]; 62 g ai/ha) was 5, the “Plant response rating, Galium” value ([8]; 125 g ai/ha) was 80 and the “Plant response rating, Galium” value ([8]; 250 g ai/ha) was 80. For the same compound, the “Plant response rating (scale of 0 to 100), Morningglory” value [9, 16] was 0, the “Plant response rating, Morningglory” value ([9]; 62 g ai/ha) was 25 and the “Plant response rating, Morningglory” value ([9]; 125 g ai/ha) was 30. For the same compound, the “Plant response rating, Morningglory” value ([9]; 250 g ai/ha) was 50, the “Plant response rating (scale of 0 to 100), Waterhemp” value [10, 16] was 75 and the “Plant response rating, Waterhemp” value ([10]; 62 g ai/ha) was 80. The “Plant response rating, Waterhemp” value ([10]; 125 g ai/ha) was 85, the “Plant response rating, Waterhemp” value ([10]; 250 g ai/ha) was 85 and the “Plant response rating (scale of 0 to 100), Wheat” value [11, 16] was 0. The “Plant response rating, Wheat” value ([11]; 62 g ai/ha) was 0, the “Plant response rating, Wheat” value ([11]; 125 g ai/ha) was 10 and the “Plant response rating, Wheat” value ([11]; 250 g ai/ha) was 65. The “Plant response rating (scale of 0 to 100), Pigweed” value [12, 16] was 70, the “Plant response rating, Pigweed” value ([12]; 62 g ai/ha) was 70 and the “Plant response rating, Pigweed” value ([12]; 125 g ai/ha) was 85. The “Plant response rating, Pigweed” value ([12]; 250 g ai/ha) was 85, the “Plant response rating (scale of 0 to 100), Blackgrass” value [13, 16] was 30 and the “Plant response rating, Blackgrass” value ([13]; 62 g ai/ha) was 60. For the same compound, the “Plant response rating, Blackgrass” value ([13]; 125 g ai/ha) was 70, the “Plant response rating, Blackgrass” value ([13]; 250 g ai/ha) was 90 and the “Plant response rating (scale of 0 to 100), Corn” value (corn (Zea mays); [16]) was 0. The “Plant response rating, Corn” value (corn (Zea mays); 62 g ai/ha) was 70, the “Plant response rating, Corn” value (corn (Zea mays); 125 g ai/ha) was 75 and the “Plant response rating, Corn” value (corn (Zea mays); 250 g ai/ha) was 85. The “Plant response rating (scale of 0 to 100), Nutsedge, Yellow” value [14, 16] was 0, the “Plant response rating, Nutsedge, Yellow” value ([14]; 62 g ai/ha) was 0 and the “Plant response rating, Nutsedge, Yellow” value ([14]; 125 g ai/ha) was 0. For the same compound, the “Plant response rating, Nutsedge, Yellow” value ([14]; 250 g ai/ha) was 25, the “Plant response rating (scale of 0 to 100), Barnyardgrass” value [15, 16] was 85 and the “Plant response rating, Barnyardgrass” value ([15]; 62 g ai/ha) was 90. The “Plant response rating, Barnyardgrass” value ([15]; 125 g ai/ha) was 95 and the “Plant response rating, Barnyardgrass” value ([15]; 250 g ai/ha) was 95.
